# Results published in patent US20190374512A1, “COMPOUNDS FOR TREATMENT OF PANCREATIC CANCER” (UNIVERSITY OF TENNESSEE RESEARCH FOUNDATION, priority 2018, published 2019).
# Test system: PC-3/Txr tumors
# Experiment: PC-3/Txr tumor growth inhibition, oral dosing
# Conditions: in vivo
smiles,measurement,value
CC(=O)O[C@@]12CO[C@@H]1C[C@H](O)[C@@]1(C)C(=O)[C@H](O)C3=C(C)[C@@H](OC(=O)[C@H](O)[C@@H](NC(=O)OC(C)(C)C)c4ccccc4)C[C@@](O)([C@@H](OC(=O)c4ccccc4)[C@H]21)C3(C)C [docetaxel],efficacy in PC-3/Txr tumors,lack of efficacy
